# Data reported in BindingDB's records for doi:10.7270/Q2SF2TM0 (The Scripps Research Institute Molecular Screening Center, 2009).
# pIC50: −log10 of the molar value.
# Molecular target: Beta-lactamase (Pseudomonas aeruginosa, UniProt Q79MP6)
# Test: IMP-1 metallo-beta-lactamase inhibitors, dose response, selectivity assay for VIM-2 inhibitor project, biochemical, epi-absorbance (AID 1920)
# Chain of Beta-lactamase (Q79MP6 whole entry): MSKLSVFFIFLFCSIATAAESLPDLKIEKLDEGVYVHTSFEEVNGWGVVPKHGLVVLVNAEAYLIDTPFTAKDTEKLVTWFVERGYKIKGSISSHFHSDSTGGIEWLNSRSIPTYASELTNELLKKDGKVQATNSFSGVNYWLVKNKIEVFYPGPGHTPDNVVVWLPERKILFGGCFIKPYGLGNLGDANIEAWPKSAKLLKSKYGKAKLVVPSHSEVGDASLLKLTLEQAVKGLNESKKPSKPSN
row,Structure (SMILES),pIC50
1,"COc1ccc(OC)c(C2C(C(=O)c3ccco3)C(=O)C(=O)N2Cc2cccnc2)c1 (configuration not stated) [2-(2,5-dimethoxyphenyl)-3-(furan-2-carbonyl)-4-hydroxy-1-(pyridin-3-ylmethyl)-2H-pyrrol-5-one]",< 4.22
2,"O=C1C(=O)N(Cc2cccnc2)C(c2ccccn2)C1C(=O)c1cccs1 (configuration not stated) [3-hydroxy-5-(2-pyridinyl)-1-(3-pyridinylmethyl)-4-(2-thienylcarbonyl)-1,5-dihydro-2H-pyrrol-2-one]",< 4.22
3,"COc1ccc(C(=O)C2C(=O)C(=O)N(Cc3ccco3)C2c2cc(OC)ccc2OC)cc1 (configuration not stated) [(4E)-5-(2,5-dimethoxyphenyl)-1-(2-furanylmethyl)-4-[hydroxy-(4-methoxyphenyl)methylidene]pyrrolidine-2,3-dione]",< 4.22
4,"O=C1C(=O)N(Cc2cccnc2)C(c2ccccn2)C1C(=O)c1ccc(F)cc1 (configuration not stated) [(4Z)-4-[(4-fluorophenyl)-hydroxy-methylene]-5-(2-pyridyl)-1-(3-pyridylmethyl)pyrrolidine-2,3-quinone]",< 4.22
5,"O=C1C(=O)N(Cc2cccnc2)C(c2ccccn2)C1C(=O)c1ccccc1 (configuration not stated) [(4Z)-4-[hydroxy(phenyl)methylene]-5-(2-pyridyl)-1-(3-pyridylmethyl)pyrrolidine-2,3-quinone]",< 4.22
6,COc1cc(OC)c(OC)cc1C=NNC(=O)Cc1c(C)[nH][nH]c1=O [MLS000555854],< 4.22
7,COc1ccc(OC)c(C=NNC(=O)Cc2c(C)[nH][nH]c2=O)c1 [SMR000147372],< 4.22
